Assay: Temperature (vital signs)
Method: The Investigational Medicinal Product (IMP) R(−)-ketamine hydrochloride in sterile water for intravenous injection was investigated as an […] treatment of TRD. The International Union of Pure and Applied Chemistry (IUPAC) name is of the IMP is (2R)-2-(2-chlorophenyl)-2-(methylamino)cyclohexan-1-one. Subjects received the solution at either 30 mg or 60 mg dose, or a placebo. The IMP or placebo was administered on Day 1 as a single IV infusion via an electronic infusion pump over 40 minutes. The duration of study participation for each subject was up to 29 days including a screening period, a 3-day in-clinic visit, and 2 follow-up visits. 101 subjects were enrolled in approximately 20 study centers in the EU and the US.
Tympanic or temporal temperature, heart rate, blood pressure (SBP/DBP), respiratory rate, and SpO2 were assessed. Blood pressure and pulse measurements will be assessed with a completely automated device while the subject is supine or semi-supine. Manual techniques will be used only if an automated device is not available. Blood pressure and pulse measurements should be preceded by at least 5 minutes of rest for the subject in a quiet setting without distractions (e.g., television, cell phones). An abnormal blood pressure value at screening may be repeated once after 5 minutes of relaxation to determine the subject's eligibility. Blood pressure was recorded using the same arm and position (supine or semi-supine) throughout the study, where possible. Vital signs (to be taken before blood collection for laboratory tests) consisted of 1 pulse and 3 blood pressure measurements (3 consecutive blood pressure readings will be recorded at intervals of at least 1 minute). The average of the 3 blood pressure readings was recorded in the CRF. A pulse oximeter was used to measure peripheral capillary oxygen saturation (SpO2) continuously from pre-dose until 4-hours post-dose. A pulse oximeter was clipped onto the finger or foot of the subject, and light will be sent through the finger or foot and measured on the other side.
In these tables, baseline value is defined as the last non-missing value prior to study drug administration.

CN[C@@]1(c2ccccc2Cl)CCCCC1=O.Cl [R(−)-ketamine, (2R)-2-(2-chlorophenyl)-2-(methylamino)cyclohexan-1-one]
Temperature, Max (30 mg, Day 1, 15 minutes): 37.2 °C
Temperature, Mean (30 mg, Day 1, 15 minutes): 36.57 °C
Temperature, Median (30 mg, Day 1, 15 minutes): 36.50 °C
Temperature, Min (30 mg, Day 1, 15 minutes): 36.4 °C
Temperature, Max (30 mg, Day 1, 40 minutes): 37.2 °C
Temperature, Mean (30 mg, Day 1, 40 minutes): 36.58 °C
Temperature, Median (30 mg, Day 1, 40 minutes): 36.60 °C
Temperature, Min (30 mg, Day 1, 40 minutes): 36.2 °C
Temperature, Max (30 mg, Day 1, 60 minutes): 37.2 °C
Temperature, Mean (30 mg, Day 1, 60 minutes): 36.57 °C
Temperature, Median (30 mg, Day 1, 60 minutes): 36.50 °C
Temperature, Min (30 mg, Day 1, 60 minutes): 36.3 °C
Temperature, Max (30 mg, Day 1, 2 hours): 37.2 °C
Temperature, Mean (30 mg, Day 1, 2 hours): 36.62 °C
Temperature, Median (30 mg, Day 1, 2 hours): 36.60 °C
Temperature, Min (30 mg, Day 1, 2 hours): 36.4 °C
Temperature, Max (30 mg, Day 1, 4 hours): 37.1 °C
Temperature, Mean (30 mg, Day 1, 4 hours): 36.57 °C
Temperature, Median (30 mg, Day 1, 4 hours): 36.60 °C
Temperature, Min (30 mg, Day 1, 4 hours): 36.3 °C
Temperature, Max (30 mg, Day 1, 6 hours): 37.2 °C
Temperature, Mean (30 mg, Day 1, 6 hours): 36.63 °C
Temperature, Median (30 mg, Day 1, 6 hours): 36.60 °C
Temperature, Min (30 mg, Day 1, 6 hours): 36.3 °C
Temperature, Max (30 mg, Day 2 - Discharge): 37.1 °C
Temperature, Mean (30 mg, Day 2 - Discharge): 36.59 °C
Temperature, Median (30 mg, Day 2 - Discharge): 36.60 °C
Temperature, Min (30 mg, Day 2 - Discharge): 35.9 °C
Temperature, Max (30 mg, Day 8): 36.8 °C
Temperature, Mean (30 mg, Day 8): 36.50 °C
Temperature, Median (30 mg, Day 8): 36.50 °C
Temperature, Min (30 mg, Day 8): 36.1 °C
Temperature, Max (30 mg, Day 15): 37.1 °C
Temperature, Mean (30 mg, Day 15): 36.60 °C
Temperature, Median (30 mg, Day 15): 36.60 °C
Temperature, Min (30 mg, Day 15): 36.2 °C
Temperature, Change from Baseline, Max (30 mg, to Day 1, 15 minutes): 0.4 °C
Temperature, Change from Baseline, Mean (30 mg, to Day 1, 15 minutes): 0.05 °C
Temperature, Change from Baseline, Median (30 mg, to Day 1, 15 minutes): 0.10 °C
Temperature, Change from Baseline, Min (30 mg, to Day 1, 15 minutes): −0.3 °C
Temperature, Change from Baseline, Max (30 mg, to Day 1, 40 minutes): 0.5 °C
Temperature, Change from Baseline, Mean (30 mg, to Day 1, 40 minutes): 0.05 °C
Temperature, Change from Baseline, Median (30 mg, to Day 1, 40 minutes): 0.00 °C
Temperature, Change from Baseline, Min (30 mg, to Day 1, 40 minutes): −0.2 °C
Temperature, Change from Baseline, Max (30 mg, to Day 1, 60 minutes): 0.5 °C
Temperature, Change from Baseline, Mean (30 mg, to Day 1, 60 minutes): 0.05 °C
Temperature, Change from Baseline, Median (30 mg, to Day 1, 60 minutes): 0.00 °C
Temperature, Change from Baseline, Min (30 mg, to Day 1, 60 minutes): −0.3 °C
Temperature, Change from Baseline, Max (30 mg, to Day 1, 2 hours): 0.7 °C
Temperature, Change from Baseline, Mean (30 mg, to Day 1, 2 hours): 0.08 °C
Temperature, Change from Baseline, Median (30 mg, to Day 1, 2 hours): 0.10 °C
Temperature, Change from Baseline, Min (30 mg, to Day 1, 2 hours): −0.2 °C
Temperature, Change from Baseline, Max (30 mg, to Day 1, 4 hours): 0.5 °C
Temperature, Change from Baseline, Mean (30 mg, to Day 1, 4 hours): 0.03 °C
Temperature, Change from Baseline, Median (30 mg, to Day 1, 4 hours): 0.00 °C
Temperature, Change from Baseline, Min (30 mg, to Day 1, 4 hours): −0.4 °C
Temperature, Change from Baseline, Max (30 mg, to Day 1, 6 hours): 0.9 °C
Temperature, Change from Baseline, Mean (30 mg, to Day 1, 6 hours): 0.09 °C
Temperature, Change from Baseline, Median (30 mg, to Day 1, 6 hours): 0.10 °C
Temperature, Change from Baseline, Min (30 mg, to Day 1, 6 hours): −0.4 °C
Temperature, Change from Baseline, Max (30 mg, to Day 2 - Discharge): 0.5 °C
Temperature, Change from Baseline, Mean (30 mg, to Day 2 - Discharge): 0.05 °C
Temperature, Change from Baseline, Median (30 mg, to Day 2 - Discharge): 0.00 °C
Temperature, Change from Baseline, Min (30 mg, to Day 2 - Discharge): −0.3 °C
Temperature, Change from Baseline, Max (30 mg, to Day 8): 0.6 °C
Temperature, Change from Baseline, Mean (30 mg, to Day 8): −0.03 °C
Temperature, Change from Baseline, Median (30 mg, to Day 8): 0.00 °C
Temperature, Change from Baseline, Min (30 mg, to Day 8): −0.7 °C
Temperature, Change from Baseline, Max (30 mg, to Day 15): 0.9 °C
Temperature, Change from Baseline, Mean (30 mg, to Day 15): 0.05 °C
Temperature, Change from Baseline, Median (30 mg, to Day 15): 0.00 °C
Temperature, Change from Baseline, Min (30 mg, to Day 15): −0.4 °C
Temperature, Max (60 mg, Day 1, 15 minutes): 36.9 °C
Temperature, Mean (60 mg, Day 1, 15 minutes): 36.58 °C
Temperature, Median (60 mg, Day 1, 15 minutes): 36.50 °C
Temperature, Min (60 mg, Day 1, 15 minutes): 36.4 °C
Temperature, Max (60 mg, Day 1, 40 minutes): 36.8 °C
Temperature, Mean (60 mg, Day 1, 40 minutes): 36.58 °C
Temperature, Median (60 mg, Day 1, 40 minutes): 36.60 °C
Temperature, Min (60 mg, Day 1, 40 minutes): 36.3 °C
Temperature, Max (60 mg, Day 1, 60 minutes): 36.8 °C
Temperature, Mean (60 mg, Day 1, 60 minutes): 36.55 °C
Temperature, Median (60 mg, Day 1, 60 minutes): 36.50 °C
Temperature, Min (60 mg, Day 1, 60 minutes): 36.4 °C
Temperature, Max (60 mg, Day 1, 2 hours): 37.0 °C
Temperature, Mean (60 mg, Day 1, 2 hours): 36.60 °C
Temperature, Median (60 mg, Day 1, 2 hours): 36.60 °C
Temperature, Min (60 mg, Day 1, 2 hours): 36.2 °C
Temperature, Max (60 mg, Day 1, 4 hours): 37.0 °C
Temperature, Mean (60 mg, Day 1, 4 hours): 36.60 °C
Temperature, Median (60 mg, Day 1, 4 hours): 36.60 °C
Temperature, Min (60 mg, Day 1, 4 hours): 36.3 °C
Temperature, Max (60 mg, Day 1, 6 hours): 37.1 °C
Temperature, Mean (60 mg, Day 1, 6 hours): 36.61 °C
Temperature, Median (60 mg, Day 1, 6 hours): 36.60 °C
Temperature, Min (60 mg, Day 1, 6 hours): 36.1 °C
Temperature, Max (60 mg, Day 2 - Discharge): 36.9 °C
Temperature, Mean (60 mg, Day 2 - Discharge): 36.60 °C
Temperature, Median (60 mg, Day 2 - Discharge): 36.60 °C
Temperature, Min (60 mg, Day 2 - Discharge): 36.1 °C
Temperature, Max (60 mg, Day 8): 37.2 °C
Temperature, Mean (60 mg, Day 8): 36.55 °C
Temperature, Median (60 mg, Day 8): 36.60 °C
Temperature, Min (60 mg, Day 8): 35.8 °C
Temperature, Max (60 mg, Day 15): 37.0 °C
Temperature, Mean (60 mg, Day 15): 36.62 °C
Temperature, Median (60 mg, Day 15): 36.60 °C
Temperature, Min (60 mg, Day 15): 36.3 °C
Temperature, Change from Baseline, Max (60 mg, to Day 1, 15 minutes): 0.3 °C
Temperature, Change from Baseline, Mean (60 mg, to Day 1, 15 minutes): 0.04 °C
Temperature, Change from Baseline, Median (60 mg, to Day 1, 15 minutes): 0.00 °C
Temperature, Change from Baseline, Min (60 mg, to Day 1, 15 minutes): −0.2 °C
Temperature, Change from Baseline, Max (60 mg, to Day 1, 40 minutes): 0.7 °C
Temperature, Change from Baseline, Mean (60 mg, to Day 1, 40 minutes): 0.05 °C
Temperature, Change from Baseline, Median (60 mg, to Day 1, 40 minutes): 0.00 °C
Temperature, Change from Baseline, Min (60 mg, to Day 1, 40 minutes): −0.4 °C
Temperature, Change from Baseline, Max (60 mg, to Day 1, 60 minutes): 0.3 °C
Temperature, Change from Baseline, Mean (60 mg, to Day 1, 60 minutes): 0.01 °C
Temperature, Change from Baseline, Median (60 mg, to Day 1, 60 minutes): 0.00 °C
Temperature, Change from Baseline, Min (60 mg, to Day 1, 60 minutes): −0.3 °C
Temperature, Change from Baseline, Max (60 mg, to Day 1, 2 hours): 0.8 °C
Temperature, Change from Baseline, Mean (60 mg, to Day 1, 2 hours): 0.07 °C
Temperature, Change from Baseline, Median (60 mg, to Day 1, 2 hours): 0.00 °C
Temperature, Change from Baseline, Min (60 mg, to Day 1, 2 hours): −0.5 °C
Temperature, Change from Baseline, Max (60 mg, to Day 1, 4 hours): 0.9 °C
Temperature, Change from Baseline, Mean (60 mg, to Day 1, 4 hours): 0.07 °C
Temperature, Change from Baseline, Median (60 mg, to Day 1, 4 hours): 0.00 °C
Temperature, Change from Baseline, Min (60 mg, to Day 1, 4 hours): −0.2 °C
Temperature, Change from Baseline, Max (60 mg, to Day 1, 6 hours): 1.0 °C
Temperature, Change from Baseline, Mean (60 mg, to Day 1, 6 hours): 0.07 °C
Temperature, Change from Baseline, Median (60 mg, to Day 1, 6 hours): 0.00 °C
Temperature, Change from Baseline, Min (60 mg, to Day 1, 6 hours): −0.4 °C
Temperature, Change from Baseline, Max (60 mg, to Day 2 - Discharge): 0.6 °C
Temperature, Change from Baseline, Mean (60 mg, to Day 2 - Discharge): 0.07 °C
Temperature, Change from Baseline, Median (60 mg, to Day 2 - Discharge): 0.10 °C
Temperature, Change from Baseline, Min (60 mg, to Day 2 - Discharge): −0.7 °C
Temperature, Change from Baseline, Max (60 mg, to Day 8): 1.2 °C
Temperature, Change from Baseline, Mean (60 mg, to Day 8): 0.01 °C
Temperature, Change from Baseline, Median (60 mg, to Day 8): 0.00 °C
Temperature, Change from Baseline, Min (60 mg, to Day 8): −0.9 °C
Temperature, Change from Baseline, Max (60 mg, to Day 15): 1.2 °C
Temperature, Change from Baseline, Mean (60 mg, to Day 15): 0.08 °C
Temperature, Change from Baseline, Median (60 mg, to Day 15): 0.00 °C
Temperature, Change from Baseline, Min (60 mg, to Day 15): −0.5 °C
